Earlier results on 2 compounds are cited in PMC4955970, “Stable, synthetic analogs of diadenosine tetraphosphate inhibit rat and human P2X3 receptors and inflammatory pain” (Molecular Pain, 2016).

Molecules are shown by their SMILES.

The series deals with P2X3R. Also on record: method as in PMID 11821019. The following applies: EC50 and IC50 values taken from literature ref 41; cited from earlier work.

With `Nc1ncnc2c1ncn2[C@@H]1O[C@H](COP(=O)(O)OP(=O)(O)OP(=O)(O)O)[C@@H](O)[C@H]1O` [ATP], the EC50/IC50 index was 15.13.

With `Nc1ncnc2c1ncn2[C@@H]1O[C@H](COP(=O)(O)OP(=O)(O)OP(=O)(O)OP(=O)(O)OC[C@H]2O[C@@H](n3cnc4c(N)ncnc43)[C@H](O)[C@@H]2O)[C@@H](O)[C@H]1O` [Ap4A, P^1,P^4-diadenosine tetraphosphate], the EC50/IC50 index is listed as 11.48.
